These results are taken from patent US10662204B2 (PFIZER INC., priority 2018, dated 2020).

The target of assay [1] is T1, GDP-loaded KRAS (1-169) G12C, C51S, C80L, C118S (Homo sapiens, UniProt P01116, C118S/C51S/C80L/G12C).
T1 construct: GDP-loaded KRAS (1-169) G12C, C51S, C80L, C118S
Nature of the assay: Mass Spectrometry Reactivity Assay (MSRA): covalent adduct of compound and KRAS G12C, Percent Modification. The class given is binding. The conditions noted are these: for MSRA (% modification) 5.0 μM 0.25 hr / MSRA (% modification) 5.0 μM 0.017 hr: 5.0 μM compound; for MSRA (% modification) 10 μM 0.25 hr / MSRA (% modification) 10 μM 0.50 hr: 10 μM compound. Put shortly:
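Covalent labelling is measured by intact mass: deconvoluted modified and unmodified peak intensities yield percent modification. Compound, usually 5 μM or 10 μM final, reacts at room temperature with 5 μM GDP-bound KRAS G12C (1-169, C51S/C80L/C118S) in Hepes pH 7.5/NaCl/glycerol, sampled at 1, 15, 30, 60 min.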

The target of a further assay is KRAS G12C (Homo sapiens, UniProt P01116, G12C). Nature of the assay: Cell Activity Assay: accumulation of GDP-bound KRAS G12C in MIAPaCa-2 cells (Raf-1 RBD capture, MSD readout). The class given is cell-based. Also on record: endogenous in cells; host or cells: MIAPaCa-2. The conditions noted are these: 6 hours, assay limit is 30.00. Put shortly:
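IC50 came from a 4-parameter fit of Ras signal normalized between DMSO and full-inhibition controls. Readout: lysate GTP-Ras bound to immobilized Raf-1 RBD, quantified with pan-Ras antibody and MSD electrochemiluminescence. Lysates derived from MIAPaCa-2 cells treated 6 h with serially diluted compound, 0.3% DMSO.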

By IC50 is commonly meant the concentration needed to halve the response being measured. Read a low IC50 as greater potency. On to `C=CC(=O)N1CCN(c2nc(OCCO)nc3c(Oc4c(Cl)c(F)cc5[nH]ncc45)nc(Cl)cc23)CC1` [Example 23G, 1-(4-{6-chloro-8-[(5-chloro-6-fluoro-1H-indazol-4-yl)oxy]-2-(2-hydroxyethoxy)pyrido[3,4-d]pyrimidin-4-yl}piperazin-1-yl)prop-2-en-1-one], for which, in assay [1], the “MSRA (% modification) 5.0 μM 0.25 hr” value was found to be 35%. On KRAS G12C, 0.688 µM corresponded to half-maximal inhibition (IC50).
In the same order, the values of `C=CC(=O)N1CCN(c2nc(OCC3CCCCN3C)nc3c(Oc4c(C)ccc5[nH]ncc45)cccc23)CC1` (centres unmarked) [Example 21F, 1-(4-{8-[(5-methyl-1H-indazol-4-yl)oxy]-2-[(1-methylpiperidin-2-yl)methoxy]quinazolin-4-yl}piperazin-1-yl)prop-2-en-1-one] are 61% and 0.283 µM.
For `C=CC(=O)N1CCN(c2nc(N3CC(C)(C#N)C3)nc3c(Oc4c(Cl)c(F)cc5[nH]ncc45)nc(Cl)cc23)CC1` [Example 02G, 1-{4-(4-acryloylpiperazin-1-yl)-6-chloro-8-[(5-chloro-6-fluoro-1H-indazol-4-yl)oxy]pyrido[3,4-d]pyrimidin-2-yl}-3-methylazetidine-3-carbonitrile], in assay [1], the “MSRA (% modification) 5.0 μM 0.25 hr” value came to 73% and the “MSRA (% modification) 10 μM 0.25 hr” value turned out to be 75%. For the same compound, on KRAS G12C, 0.584 µM corresponded to half-maximal inhibition (IC50).
For `C=CC(=O)N1CCN(c2nc(O[C@@H]3CN(CC)C[C@H]3OC)nc3c(Oc4c(Cl)c(F)cc5[nH]ncc45)nccc23)CC1` [Example 17H, 1-[4-(8-[(5-chloro-6-fluoro-1H-indazol-4-yl)oxy]-2-{[(3R,4R)-1-ethyl-4-methoxypyrrolidin-3-yl]oxy}pyrido[3,4-d]pyrimidin-4-yl)piperazin-1-yl]prop-2-en-1-on], the “MSRA (% modification) 5.0 μM 0.017 hr” value in assay [1] amounted to 69%. On KRAS G12C, half-maximal inhibition (IC50) required 0.026 µM.
Take `C=CC(=O)N1CCN(c2nc(Oc3cccnc3C(F)(F)F)nc3c(Oc4c(Cl)c(F)cc5[nH]ncc45)nccc23)CC1` [Example 07I, 1-[4-(8-[(5-chloro-6-fluoro-1H-indazol-4-yl)oxy]-2-{[2-(trifluoro-methyl)pyridin-3-yl]oxy}pyrido [3,4-s]pyrimidin-4-yl)piperazin-1-yl]prop-2-en-1-one]: in assay [1], the “MSRA (% modification) 5.0 μM 0.25 hr” value is 46%. Besides, at KRAS G12C, inhibition was half-maximal at 0.331 µM (IC50).
For the compound `C=CC(=O)N1CCN(c2nc(O[C@@H]3CN(C)C[C@H]3C(F)F)nc3c(Oc4c(Cl)c(F)cc5[nH]ncc45)nccc23)CC1` (single isomer, unassigned) [Example 59I], in assay [1], the “MSRA (% modification) 5.0 μM 0.017 hr” value came to 13%. On KRAS G12C, this compound returned an IC50 of 0.123 µM.
Turning to `C=CC(=O)N1CCN(c2ncnc3c(Oc4c(Cl)c(Cl)cc5[nH]ncc45)nccc23)CC1` [Example 29A, 1-(4-{8-[(5,6-dichloro-1H-indazol-4-yl)oxy]pyrido[3,4-d]pyrimidin-4-yl}piperazin-1-yl)prop-2-en-1-one], in assay [1], the “MSRA (% modification) 10 μM 0.25 hr” value amounted to 70% and the “MSRA (% modification) 10 μM 0.50 hr” value was determined as 76%. Moreover, the IC50 on KRAS G12C was determined as 0.391 µM.
Take `C=CC(=O)N1CCN(c2nc(N3CC(N(C)C)C3)nc3c(Oc4c(Cl)c(C)cc5[nH]ncc45)nc(C)cc23)CC1` [Example 01E, 1-(4-{8-[(5-Chloro-6-methyl-1H-indazol-4-yl)oxy]-2-[3-(dimethylamino)azetidin-1-yl]-6-methylpyrido[3,4-d]pyrimidin-4-yl}piperazin-1-yl)prop-2-en-1-one]: the “MSRA (% modification) 10 μM 0.50 hr” value in assay [1] came to 29%. On KRAS G12C, this compound came in with an IC50 of 2.41 µM.
As for `C=CC(=O)N1CCN(c2nc(OC[C@H]3CCCN3C)nc3c(Oc4c(C)c(Cl)cc5[nH]ncc45)cccc23)CC1` [Example 21E, 1-[4-(8-[(6-chloro-5-methyl-1H-indazol-4-yl)oxy]-2-{[(2R)-1-methylpyrrolidin-2-yl]methoxy}quinazolin-4-yl)piperazin-1-yl]prop-2-en-1-one], the “MSRA (% modification) 10 μM 0.25 hr” value in assay [1] was 65%. The same compound gave an IC50 against KRAS G12C of 0.18 µM.
Turning to `C=CS(=O)(=O)N1CCN(c2ncnc3c(Oc4c(Cl)c(C)cc5[nH]ncc45)nccc23)CC1` [Example 04, 8-[(5-chloro-6-methyl-1H-indazol-4-yl)oxy]-4-[4-(ethenylsulfonyl)piperazin-1-yl]pyrido[3,4-d]pyrimidine], the “MSRA (% modification) 10 μM 0.50 hr” value in assay [1] amounted to 25%. This compound showed an IC50 at KRAS G12C of 11.7 µM.
For the compound `C=CC(=O)N1CCN(c2nc(OCCN3CCCC3)nc3c(Oc4c(C)ccc5[nH]ncc45)nccc23)CC1` [Example 12B, 1-(4-{8-[(5-methyl-1H-indazol-4-yl)oxy]-2-[2-(pyrrolidin-1-yl)ethoxy]pyrido[3,4-d]pyrimidin-4-yl}piperazin-1-yl)prop-2-en-1-one], the “MSRA (% modification) 10 μM 0.25 hr” value in assay [1] turned out to be 21%. Moreover, the IC50 against KRAS G12C came to 5.45 µM.
Turning to `C=CC(=O)N1CCN(c2nc(O[C@@H]3CN(C)C[C@@H]3OC)nc3c(Oc4c(Cl)c(F)cc5[nH]ncc45)nc(Cl)cc23)CC1` (racemic) [Example 26G, rac-1-[4-(6-chloro-8-[(5-chloro-6-fluoro-1H-indazol-4-yl)oxy]-2-{[(3R,4S)-4-methoxy-1-methylpyrrolidin-3-yl]oxy}pyrido[3,4-d]pyrimidin-4-yl)piperazin-1-yl]prop-2-en-1-one], the “MSRA (% modification) 5.0 μM 0.017 hr” value in assay [1] was 35%. In addition, on KRAS G12C, the midpoint of inhibition, the IC50, lay at 0.195 µM.
On to `C=CC(=O)N1CCN(c2nc(OC[C@H]3CCCN3C)nc3c(Oc4c(C)ccc5[nH]ncc45)nccc23)CC1` [Example 09B, 1-[4-(8-[(5-methyl-1H-indazol-4-yl)oxy]-2-{[(2R)-1-methylpyrrolidin-2-yl]methoxy}pyrido[3,4-d]pyrimidin-4-yl)piperazin-1-yl]prop-2-en-1-one], for which the “MSRA (% modification) 10 μM 0.25 hr” value in assay [1] worked out at 43%. Half-maximal inhibition at KRAS G12C (IC50) required 3.1 µM.
In the case of `C=CC(=O)N1CCN(c2nc(Oc3cccnc3)nc3c(Oc4c(Cl)c(F)cc5[nH]ncc45)nccc23)CC1` [Example 13I, 1-(4-{8-[(5-chloro-6-fluoro-1H-indazol-4-yl)oxy]-2-(pyridin-3-yloxy)pyrido [3,4-d]pyrimidin-4-yl}piperazin-1-yl)prop-2-en-1-one], in assay [1], the “MSRA (% modification) 5.0 μM 0.25 hr” value amounted to 44%. At KRAS G12C, this compound came in with an IC50 of 0.777 µM.
As for `C=CC(=O)N1CCN(c2ncnc3c(Oc4cc(O)cc5ccccc45)nc(C)cc23)CC1` [Example 02, 1-(4-{8-[(3-Hydroxynaphthalen-1-yl)oxy]-6-methylpyrido[3,4-d]pyrimidin-4-yl}piperazin-1-yl)prop-2-en-1-one], in assay [1], the “MSRA (% modification) 10 μM 0.50 hr” value amounted to 19%. Further, the IC50 against KRAS G12C was more than 30 µM.
In the case of `C=CC(=O)N1CCN(c2nc(OC[C@@H]3CC(F)(F)CN3C)nc3c(Oc4c(C)ccc5[nH]ncc45)nccc23)CC1` [Example 07B, 1-[4-(2-{[(2S)-4,4-difluoro-1-methylpyrrolidin-2-yl]methoxy}-8-[(5-methyl-1H-indazol-4-yl)oxy]pyrido[3,4-d]pyrimidin-4-yl)piperazin-1-yl]prop-2-en-1-one], the “MSRA (% modification) 10 μM 0.25 hr” value in assay [1] was 15%. At KRAS G12C, this compound had an IC50 of 6.18 µM.
On to `C=CC(=O)N1CCN(c2nc(NC3CNC(=O)C3)nc3c(Oc4c(C)ccc5[nH]ncc45)cccc23)CC1` (centres unmarked) [Example 15F, 4-({4-(4-acryloylpiperazin-1-yl)-8-[(5-methyl-1H-indazol-4-yl)oxy]quinazolin-2-yl}amino)pyrrolidin-2-one], for which the “MSRA (% modification) 10 μM 0.50 hr” value in assay [1] came out at 13%. Further, the IC50 against KRAS G12C is more than 30 µM.
As for `C=CC(=O)N1CCN(c2nc(NCc3nc(C)c[nH]3)nc3c(Oc4c(C)ccc5[nH]ncc45)cccc23)CC1` [Example 01F, 1-[4-(2-{[(4-methyl-1H-imidazol-2-yl)methyl]amino}-8-[(5-methyl-1H-indazol-4-yl)oxy]quinazolin-4-yl)piperazin-1-yl]prop-2-en-1-one], the “MSRA (% modification) 10 μM 0.50 hr” value in assay [1] is 35%. Further, it took 9.34 µM to reach half-maximal inhibition at KRAS G12C (IC50).
The like results for `C=CC(=O)N1CCN(c2ncnc3c(Oc4c(C)c(Cl)cc5[nH]ncc45)nc(C#N)cc23)C[C@H]1C` [Example 27A, 4-[(3R)-4-acryloyl-3-methylpiperazin-1-yl]-8-[(6-chloro-5-methyl-1H-indazol-4-yl)oxy]pyrido[3,4-d]pyrimidine-6-carbonitrile] were, in that order, 30% and 13.3 µM.
Regarding `C=CC(=O)N1CCN(c2ncnc3c(Oc4c(C)ccc5[nH]ncc45)cccc23)C[C@H]1C` [Example 03C, 1-[(2R)-2-methyl-4-{8-[(5-methyl-1H-indazol-4-yl)oxy]quinazolin-4-yl}piperazin-1-yl]prop-2-en-1-one], in assay [1], the “MSRA (% modification) 10 μM 0.25 hr” value worked out at 3% and the “MSRA (% modification) 10 μM 0.50 hr” value turned out to be 8%. This compound also displayed a 50% inhibitory concentration (IC50) against KRAS G12C of 24.2 µM.
As for `C=CC(=O)N1CCN(c2ncnc3c(Oc4c(C)ccc5[nH]ncc45)nc(C(F)(F)F)cc23)CC1` [Example 03A, 1-(4-{8-[(5-methyl-1H-indazol-4-yl)oxy]-6-(trifluoromethyl)pyrido[3,4-d]pyrimidin-4-yl}piperazin-1-yl)prop-2-en-1-one], in assay [1], the “MSRA (% modification) 10 μM 0.50 hr” value is recorded as 28%. The same compound showed an IC50 against KRAS G12C of 2.74 µM.
Regarding `C=CC(=O)N1CCN(c2nc(O[C@@H]3CN(C)C[C@H]3OC)nc3c(Oc4c(Cl)c(F)cc5[nH]ncc45)nc(C)cc23)CC1` [Example 01K, 1-[4-(8-[(5-chloro-6-fluoro-1H-indazol-4-yl)oxy]-2-{[(3R,4R)-4-methoxy-1-methylpyrrolidin-3-yl]oxy}-6-methylpyrido[3,4-d]pyrimidin-4-yl)piperazin-1-yl]prop-2-en-1-one], the “MSRA (% modification) 5.0 μM 0.017 hr” value in assay [1] is reported as 65%. Moreover, the IC50 against KRAS G12C was 0.065 µM.
